Patent US9371292B2, “Quinazoline derivative, preparation method therefor, intermediate, composition and application thereof” (SHANGHAI PHARMACEUTICALS HOLDINGS CO., LTD., priority 2011, dated 2016)
Counter-ions that a name gives are not always drawn. Like-named read-outs stand apart in the source and are kept apart here.

How the values were obtained:
EGFR = EGFR (Homo sapiens, UniProt P00533); test: Mobility shift assay, kinase inhibition (EGFR); format: biochemical; conditions: read-out: Kinase inhibitory activity IC50 (nM) EGFR
Description: (§1) Enzyme activity assay was test by the Mobility shift assay method (Expert Opin Drug Discov. 2008, 3(6): 607-621). A 10 mM stock solution of the test compound in DMSO were made after weighing. According to the required concentration, proper quantity of the 10 mM stock solution was dissolved in water to get a work solution with a concentration 5 times the final concentration. And various kinases, EGFR, HER2, HER4 were dissolved into a reaction buffer with a concentration 1.25 times the required concentration (62.5 mM HEPES, pH7.5, 0.001875% Brij-35, 12.5 mM MgCl2, 2.5 mM DTT), and get a enzyme work solution with a concentration 2.5 times the final concentration. At the same time, ATP and FAM tag peptide substrates will be dissolved in the reaction buffer with a concentration of 1.25× to get a substrate and ATP working solution with a concentration 2.5 times the required concentration. Then 5 μl the work solution of compound is added to 384 wells test plate, 5 μl 250 mM EDTA is added to a blank control, the same volume of work solution without drug is added to the negative control (Max). 10 μl Enzyme work solution is added at the same time. After mix gently and hatch for 10 minutes at room temperature, 10 μl substrate and ATP work solution are added to each well. The test plates are placed at 28 degrees for 60 mins. Then 25 μl suspending liquid is added into each reaction well (100 mM HEPES, pH7.5, 0.015% Brij-35, 0.2% Coating Reagent#3, 50 mM EDTA) to quench the enzyme reaction. Finally, the plate is put on Caliper EZ reader to collect conversion rate of the substrate in each well (The phosphorylation ratio of the substrate caused by the kinases). Based on the data described above, the kinase inhibitory of the compound can be calculated as follows: % inh=(Max−conversion)/(Max−Min)×100, wherein % inh is percent inhibition, Max is the conversion ratio of the substrate in negative control well, min is the conversion ratio of the substrate in blank control well, conversion is the conversion rate of substrate in each well with various concentration of the test compound. The % inh value of each concentration of the test compound would be analyzed in Xlift to obtain the corresponding IC50 value, the curve fitting formula is: Y=Bottom+(Top−Bottom)/(1+10^((Log IC50−X)*Hillslope))

HER2 = HER2 (Homo sapiens, UniProt P04626); test: Mobility shift assay, kinase inhibition (HER2); format: biochemical; conditions: read-out: Kinase inhibitory activity IC50 (nM) HER2
Description: as §1

HER4 = HER4 (Homo sapiens, UniProt Q15303); test: Mobility shift assay, kinase inhibition (HER4); format: biochemical; conditions: read-out: Kinase inhibitory activity IC50 (nM) HER4
Description: as §1

NCI-H1975 = format: in vivo, BALB/c nude mice; conditions: for Tolerability in mice: mouse, in vivo, po; for Tumor volume: 60 mg/kg PO QD
Excerpt: Preparation method: dissolve the test compound in 20% PEG400+3% Tween80 to obtain a required concentration; dissolve the control group in 0.5% CMC+0.4% Tween80 to obtain a required concentration.
BALB/c nude mice (Shanghai xipuer-bikai experimental animals company), weight 16-18 g, female. BD matrigel, NCI-H1975 cell (ATCC)
Cells in logarithmic phase were collected. The ratio of medium to matrigel was 1:1. The concentration of cell was adjust to 3×10^7/ml and put into a ice box, then inoculated in each nude mice subcutaneously with 0.2 ml. Then carry out intragastric administration once a day for 5 days and stop administration for 2 days. Administrate for 9 days in total. Dosages are as follows:
The size and weight were measured. The length and width of tumors were measured individually with microcalipers. Tumor volume (V) and relative tumor volume (RTV) was calculated as formula. Day 12, all the nude mouse were killed and the tumors were taken out and pictured. The individual as follows: RTV=Vt/V0, where Vt is and V0 is. and the calculation formula is T/C (%)=mean RTV of the treated group/mean RTV of the control group×100%.
(1) Tumor volume (Tumor Volume, TV), calculation formula: […], wherein a and b presents length and width respectively.
(2) Relative Tumor Volume (RTV), calculation formula: RTV=Vt/V0.
Wherein TV0 is the volume on the day of initial treatment, TVt is the volume on each day of measurement.
(3) The relative tumor increment rate T/C (%), calculation formula: […]
TRTV: treated group RTV; CRTV: negative control group RTV.
Therapeutic effect of compound was expressed in terms of T/C %.

EGFR tyrosine kinase = molecular target: T1, EGFR tyrosine kinase (Homo sapiens, UniProt P00533); test: HTRF assay, inhibition of EGFR tyrosine kinase; format: biochemical; conditions: HTRF method
T1 construct: purchased Sigma Aldrich
Description: The activity of inhibitory against the kinase of the test compound is expressed by IC50. The assays are performed by Homogeneous time-resolved fluorescence (HTRF) method which is as follows: a series of synthesized analogues with gradient concentration are incubated for 5 minutes in enzymatic solution with specific concentration (for EGFR) at room temperature. Then proper amount of substrate and ATP are added into the reaction mixture to start the enzyme reaction. The assays of the specific concentration of compound is measured by Flexstation III of Molecular device company after the stop buffer and detecting liquid are added to the enzyme reaction system and hatch at room temperature for 1 hour. And the activity of inhibitory against the kinase of the test compound with different concentration will be calculated, then according to the 4-parameter equation, fit the inhibitory activity of the test compound with different concentration to get the IC50. EGFR is purchased from Sigma Aldrich. The HTRF KinEASE-TK is purchased from Cisbio Bioassays. ATP is purchased from Sigma Aldrich.

[1] = tested on: NCI-H1975 L858R T790M cell; test: Proliferation inhibition, H1975 cells (CellTiter-Glo); format: cell-based; conditions: Homo sapiens, 48 hours
Description: (§2) This example is to determine the proliferation inhibitory activity against wide type of high expression cell lines A431 of EGFR and mutant cell lines NCI-H1975^L858RT790M, the proliferation inhibitory activity in cell-based level of compound is expressed by IC50. The test method is as follows: both cell lines are purchased from American type culture collection (ATCC). The cells are seeded in a white and opaque 384-well culture plate with a proper concentration (A431: 20000 cells/ml medium; H1975: 15000 cells/ml medium), cultured at 37° C. with 5% CO2 for 24 hrs, a series of medicine with gradient concentration is added, generally 10 concentrations, cultured for another 48 hours under the previous conditions. The assays of the proliferation inhibitory activity against the A431 and H1975 cell of the test compounds are performed by the CellTiter-Glo Luminescent Cell Viability Assay and calculate the proliferation inhibitory activity of compound with different concentrations. CellTiter-Glo Luminescent Cell Viability Assay is purchased from Promega. Fit the data of proliferation inhibitory activity against A431 and H1975 of compounds with different concentrations with 4-parameter equation.

A431 cell = test: Proliferation inhibition, A431 cells (CellTiter-Glo); format: cell-based; conditions: Homo sapiens, A-431, 48 hours
Description: as §2

T1 sequence (P00533 25-1210): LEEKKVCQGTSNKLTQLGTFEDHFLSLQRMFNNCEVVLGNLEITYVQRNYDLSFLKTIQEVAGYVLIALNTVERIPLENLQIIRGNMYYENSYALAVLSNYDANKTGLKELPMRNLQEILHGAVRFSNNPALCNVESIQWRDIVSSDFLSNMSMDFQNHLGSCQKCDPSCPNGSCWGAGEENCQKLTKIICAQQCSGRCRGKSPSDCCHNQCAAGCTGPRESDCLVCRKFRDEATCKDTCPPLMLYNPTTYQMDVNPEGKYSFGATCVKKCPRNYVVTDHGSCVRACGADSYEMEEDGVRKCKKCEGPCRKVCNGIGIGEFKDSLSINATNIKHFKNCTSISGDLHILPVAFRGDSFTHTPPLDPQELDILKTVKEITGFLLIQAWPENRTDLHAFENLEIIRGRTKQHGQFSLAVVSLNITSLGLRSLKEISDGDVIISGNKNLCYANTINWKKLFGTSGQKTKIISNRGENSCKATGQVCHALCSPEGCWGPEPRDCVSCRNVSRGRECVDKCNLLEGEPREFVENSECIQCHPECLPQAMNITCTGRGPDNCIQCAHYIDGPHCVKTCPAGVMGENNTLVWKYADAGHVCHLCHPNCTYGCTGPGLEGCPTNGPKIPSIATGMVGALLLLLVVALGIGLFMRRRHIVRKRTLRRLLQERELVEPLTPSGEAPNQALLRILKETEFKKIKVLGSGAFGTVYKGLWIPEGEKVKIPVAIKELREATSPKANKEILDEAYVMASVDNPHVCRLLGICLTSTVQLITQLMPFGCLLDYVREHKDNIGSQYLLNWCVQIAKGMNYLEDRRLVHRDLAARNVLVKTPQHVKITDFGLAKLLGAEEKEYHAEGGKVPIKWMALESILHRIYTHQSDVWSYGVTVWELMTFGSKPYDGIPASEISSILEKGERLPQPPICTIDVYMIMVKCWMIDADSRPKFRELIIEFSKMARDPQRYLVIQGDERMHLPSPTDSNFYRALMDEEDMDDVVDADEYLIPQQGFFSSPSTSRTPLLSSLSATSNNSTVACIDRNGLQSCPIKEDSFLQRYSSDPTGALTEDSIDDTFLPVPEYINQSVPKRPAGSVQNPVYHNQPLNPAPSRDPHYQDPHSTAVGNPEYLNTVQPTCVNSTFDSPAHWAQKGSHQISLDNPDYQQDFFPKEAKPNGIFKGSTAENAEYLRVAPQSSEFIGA
Chain of EGFR (P00533 25-1210): as above
Chain of HER4 (Q15303 26-1308): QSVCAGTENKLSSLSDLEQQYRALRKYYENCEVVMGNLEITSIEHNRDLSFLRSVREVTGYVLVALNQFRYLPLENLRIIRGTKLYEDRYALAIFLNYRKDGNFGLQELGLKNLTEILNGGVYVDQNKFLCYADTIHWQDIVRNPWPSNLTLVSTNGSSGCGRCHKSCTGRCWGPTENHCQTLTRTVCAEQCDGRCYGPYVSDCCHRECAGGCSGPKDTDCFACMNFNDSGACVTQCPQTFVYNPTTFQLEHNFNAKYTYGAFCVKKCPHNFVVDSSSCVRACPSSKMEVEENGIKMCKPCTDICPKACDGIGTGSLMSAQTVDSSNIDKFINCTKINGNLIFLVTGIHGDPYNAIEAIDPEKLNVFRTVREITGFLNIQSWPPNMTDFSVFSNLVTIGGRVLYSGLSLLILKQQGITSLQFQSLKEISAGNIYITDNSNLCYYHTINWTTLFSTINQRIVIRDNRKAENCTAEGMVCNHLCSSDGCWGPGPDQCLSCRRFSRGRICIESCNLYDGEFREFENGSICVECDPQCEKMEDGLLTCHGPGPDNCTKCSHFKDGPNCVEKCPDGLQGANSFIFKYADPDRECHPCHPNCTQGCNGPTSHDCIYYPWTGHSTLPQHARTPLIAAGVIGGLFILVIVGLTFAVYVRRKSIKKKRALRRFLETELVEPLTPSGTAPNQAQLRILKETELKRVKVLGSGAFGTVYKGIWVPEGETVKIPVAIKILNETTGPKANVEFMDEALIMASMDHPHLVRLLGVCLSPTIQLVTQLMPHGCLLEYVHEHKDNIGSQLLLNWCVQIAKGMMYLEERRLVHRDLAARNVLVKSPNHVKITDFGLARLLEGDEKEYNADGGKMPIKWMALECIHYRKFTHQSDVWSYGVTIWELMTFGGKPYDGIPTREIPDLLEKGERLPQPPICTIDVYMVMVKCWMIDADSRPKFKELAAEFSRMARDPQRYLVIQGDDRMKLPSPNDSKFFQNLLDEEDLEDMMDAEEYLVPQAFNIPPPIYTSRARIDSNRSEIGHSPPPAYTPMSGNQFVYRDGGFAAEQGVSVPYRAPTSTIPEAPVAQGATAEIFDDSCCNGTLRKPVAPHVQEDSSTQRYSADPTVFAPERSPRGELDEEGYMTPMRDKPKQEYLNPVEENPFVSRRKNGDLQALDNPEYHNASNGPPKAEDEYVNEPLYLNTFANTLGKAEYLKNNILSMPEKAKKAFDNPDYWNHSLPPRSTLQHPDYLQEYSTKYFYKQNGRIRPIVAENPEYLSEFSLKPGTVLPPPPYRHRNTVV
Chain of HER2 (P04626 23-1255): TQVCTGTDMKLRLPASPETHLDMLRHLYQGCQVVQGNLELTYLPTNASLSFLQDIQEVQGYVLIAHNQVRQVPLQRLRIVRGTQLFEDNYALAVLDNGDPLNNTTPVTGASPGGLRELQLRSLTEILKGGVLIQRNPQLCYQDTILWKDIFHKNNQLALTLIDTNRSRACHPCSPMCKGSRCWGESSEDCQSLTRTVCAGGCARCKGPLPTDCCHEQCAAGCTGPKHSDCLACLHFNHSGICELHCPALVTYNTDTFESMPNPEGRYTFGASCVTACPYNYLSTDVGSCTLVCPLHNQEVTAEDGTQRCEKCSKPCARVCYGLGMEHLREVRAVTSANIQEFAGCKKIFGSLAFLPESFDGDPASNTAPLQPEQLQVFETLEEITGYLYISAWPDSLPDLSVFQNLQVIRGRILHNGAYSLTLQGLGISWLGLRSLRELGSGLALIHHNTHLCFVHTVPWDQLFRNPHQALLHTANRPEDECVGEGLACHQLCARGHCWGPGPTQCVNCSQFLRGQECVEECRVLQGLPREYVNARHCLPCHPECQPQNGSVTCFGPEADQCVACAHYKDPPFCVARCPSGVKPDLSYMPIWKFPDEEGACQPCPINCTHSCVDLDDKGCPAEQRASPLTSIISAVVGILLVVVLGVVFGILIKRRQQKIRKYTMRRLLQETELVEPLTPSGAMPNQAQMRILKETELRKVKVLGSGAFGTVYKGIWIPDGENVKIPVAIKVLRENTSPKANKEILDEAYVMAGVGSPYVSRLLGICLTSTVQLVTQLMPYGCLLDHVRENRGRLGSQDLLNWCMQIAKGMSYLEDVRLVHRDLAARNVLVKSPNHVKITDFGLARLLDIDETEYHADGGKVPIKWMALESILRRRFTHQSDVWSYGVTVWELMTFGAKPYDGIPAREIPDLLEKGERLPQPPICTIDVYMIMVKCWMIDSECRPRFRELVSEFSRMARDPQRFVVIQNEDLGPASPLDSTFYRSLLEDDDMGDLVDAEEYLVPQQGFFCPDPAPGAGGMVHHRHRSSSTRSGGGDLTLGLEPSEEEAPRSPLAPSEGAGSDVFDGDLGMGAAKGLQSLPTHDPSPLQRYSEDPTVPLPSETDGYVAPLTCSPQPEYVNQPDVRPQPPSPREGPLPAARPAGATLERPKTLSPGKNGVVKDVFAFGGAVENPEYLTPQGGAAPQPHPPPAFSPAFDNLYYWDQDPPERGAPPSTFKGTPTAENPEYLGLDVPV

COc1cc2ncnc(Nc3ccc(F)c(Cl)c3)c2cc1NC(=O)C(F)=CCN(C)C (mixture of isomers) [Compound 1, N-(4-((3-chloro-4-fluorophenyl)amino)-7-methoxyquinazolin-6-yl)-4-(dimethylamino)-2-fluorobut-2-enamide]
IC50 (EGFR): 1.7 nM
IC50 (HER2): 168 nM
IC50 (HER4): 21 nM

COCCOc1cc2ncnc(Nc3ccc(F)c(Cl)c3)c2cc1NC(=O)C(F)=CCN(C)C (mixture of isomers) [Compound 3-1, N-(4-((3-chloro-4-fluorophenyl)amino)-7-(2-methoxyethoxy)quinazolin-6-yl)-4-(dimethylamino)-2-fluorobut-2-enamide]
IC50 (EGFR): 2.5 nM

COc1cc2ncnc(Nc3ccc(F)c(Cl)c3)c2cc1NC(=O)/C(F)=C/CN(C)C [2-1(hydrochloride), (Z)—N-(4-((3-chloro-4-fluorophenyl)amino)-7-methoxyquinazolin-6-yl)-4-(dimethylamino)-2-fluorobut-2-enamide]
Inhibition of growth of NCI-H1975 in nude mice (in words) (NCI-H1975; NCI-H1975 nude mice, 60 mpk, 60 mg/kg): significantly inhibit the growth
Tolerability in mice (NCI-H1975; 60 mg/kg): well tolerated

COc1cc2ncnc(Nc3ccc(F)c(Cl)c3)c2cc1NC(=O)/C(F)=C\CN(C)C [Compound 2-2, (E)-N-(4-((3-chloro-4-fluorophenyl)amino)-7-methoxyquinazolin-6-yl)-4-(dimethylamino)-2-fluorobut-2-enamide]
IC50 (EGFR): 4.5 nM
IC50 (HER2): 369 nM
IC50 (HER4): 63 nM

COc1cc2ncnc(Nc3ccc(OCc4ccccn4)c(Cl)c3)c2cc1NC(=O)/C(F)=C/CN(C)C [Compound 4-1, (Z)—N-(4-((3-chloro-4-(pyridin-2-ylmethoxy)phenyl)amino)-7-methoxyquinazolin-6-yl)-4-(dimethylamino)-2-fluorobut-2-enamide]
IC50 (HER2): 62 nM

COc1cc2ncnc(Nc3ccc(OCc4ccccn4)c(Cl)c3)c2cc1NC(=O)/C(F)=C\CN(C)C [Compound 4-2, (E)-N-(4-((3-chloro-4-(pyridin-2-ylmethoxy)phenyl)amino)-7-methoxyquinazolin-6-yl)-4-(dimethylamino)-2-fluorobut-2-enamide]
IC50 (EGFR): 9.5 nM
IC50 (HER2): 64 nM
IC50 (HER4): 206 nM

C=C(F)C(=O)Nc1cc2c(Nc3ccc(F)c(Cl)c3)ncnc2cc1OCCCN1CCOCC1 [Compound 5, N-(4-((3-chloro-4-fluorophenyl)amino)-7-(3-morpholinopropoxy)quinazolin-6-yl)-2-fluoroacrylamide]
IC50 (EGFR tyrosine kinase): 0.39 nM
Tumor volume (NCI-H1975; Day 0, NCI-H1975 nude mice): 177 ± 17 mm^3
Tumor volume (NCI-H1975; Day 2, NCI-H1975 nude mice): 160 ± 11 mm^3
Tumor volume (NCI-H1975; Day 4, NCI-H1975 nude mice): 164 ± 27 mm^3
Tumor volume (NCI-H1975; Day 7, NCI-H1975 nude mice): 147 ± 20 mm^3
Tumor volume (NCI-H1975; Day 9, NCI-H1975 nude mice): 151 ± 27 mm^3
Tumor volume (NCI-H1975; Day 11, NCI-H1975 nude mice): 131 ± 33 mm^3
Tolerability in mice (NCI-H1975; 60 mg/kg): well tolerated
IC50 [1]: 2500 nM
IC50 (A431 cell): 3200 nM

C=C(F)C(=O)Nc1cc2c(Nc3ccc(F)c(Cl)c3F)ncnc2cc1OCC1CCN(C)CC1 [Compound 6, N-(4-((3-chloro-2,4-difluorophenyl)amino)-7-((1-methylpiperidin-4-yl)methoxy)quinazolin-6-yl)-2-fluoroacrylamide]
IC50 (EGFR tyrosine kinase): 0.54 nM
Tumor volume (NCI-H1975; Day 0, NCI-H1975 nude mice): 179 ± 13 mm^3
Tumor volume (NCI-H1975; Day 2, NCI-H1975 nude mice): 154 ± 35 mm^3
Tumor volume (NCI-H1975; Day 4, NCI-H1975 nude mice): 113 ± 26 mm^3
Tumor volume (NCI-H1975; Day 7, NCI-H1975 nude mice): 66 ± 16 mm^3
Tumor volume (NCI-H1975; Day 9, NCI-H1975 nude mice): 58 ± 11 mm^3
Tumor volume (NCI-H1975; Day 11, NCI-H1975 nude mice): 57 ± 11 mm^3
Tolerability in mice (NCI-H1975; 60 mg/kg): well tolerated
IC50 [1]: 1200 nM
IC50 (A431 cell): 500 nM

C=C(F)C(=O)Nc1cc2c(Nc3cccc(C(F)(F)F)c3)ncnc2cc1OCC [Compound 55, N-[7-ethoxy-4-(3-trifluoromethyl-phenylamino)-quinazolin-6-yl]-2-fluoro-acrylamide]
IC50 (EGFR tyrosine kinase): 0.97 nM
IC50 [1]: 13000 nM
IC50 (A431 cell): 22000 nM

C=C(F)C(=O)Nc1cc2c(Nc3ccc(F)c(Cl)c3)ncnc2cc1OC [Compound 56, N-[4-(3-chloro-4-fluoro-phenylamino)-7-methoxy-quinazolin-6-yl]-2-fluoro-acrylamide]
IC50 (EGFR tyrosine kinase): 0.22 nM
IC50 [1]: 510 nM
IC50 (A431 cell): 2800 nM

C=C(Cl)C(=O)Nc1cc2c(Nc3ccc(F)c(Cl)c3)ncnc2cc1OC [Compound 57, N-[4-(3-chloro-4-fluoro-phenylamino)-7-methoxy-quinazolin-6-yl]-2-chloro-acrylamide]
IC50 (EGFR tyrosine kinase): 0.13 nM
IC50 [1]: 1300 nM
IC50 (A431 cell): 7500 nM

C=C(Cl)C(=O)Nc1cc2c(Nc3cccc(C(F)(F)F)c3)ncnc2cc1OCC [Compound 58, N-[7-ethoxy-4-(3-trifluoromethyl-phenylamino)-quinazolin-6-yl]-2-chloro-acrylamide]
IC50 (EGFR tyrosine kinase): 1 nM
IC50 [1]: 8300 nM
IC50 (A431 cell): 27000 nM

C=C(Cl)C(=O)Nc1cc2c(Nc3cccc(Br)c3)ncnc2cc1OCC [Compound 59, N-[4-(3-bromo-phenylamino)-7-ethoxy-quinazolin-6-yl]-2-chloro-acrylamide]
IC50 (EGFR tyrosine kinase): 0.63 nM
IC50 [1]: 11000 nM
IC50 (A431 cell): 10000 nM

C=C(F)C(=O)Nc1cc2c(Nc3ccc(OCC4CC4)c(Cl)c3)ncnc2cc1OCCCN1CCOCC1 [Compound 61]
IC50 (EGFR tyrosine kinase): 4.5 nM
IC50 [1]: 1000 nM
IC50 (A431 cell): 800 nM
